This is an account of results in BindingDB's records for patent USRE46792 (Otsuka Pharmaceutical, 2018).

The target in this experiment is cAMP-specific 3',5'-cyclic phosphodiesterase 4D (Homo sapiens, UniProt Q08499). Nature of the experiment: Inhibitory Activity Assay. The method, then:
Necessary amounts of test compounds were weighed, and 100% dimethylsulfoxide (DMSO) was added thereto to adjust the concentration to 10 mM. The solutions were stored in a freezer as stock solutions of each test compound. After being thawed when required, the solutions were diluted 20-fold with 100% DMSO to give a 500 μM concentration. Further, 10-fold serial dilutions were made with 100% DMSO to prepare test compounds of different concentrations. 2 μl of solutions containing one of each of the test compound were separately added into 1.2 ml tubes in which 23 μl of 20 mM Tris-HCl (pH 7.4) had been placed beforehand. 25 μl of a PDE4D enzyme solution diluted at an optimal ratio determined in (3) above were added on ice to each of the tubes, and 50 μl of a substrate solution containing 2 μM[3H] cAMP prepared by dilution with a 20 mM Tris-HCl (pH 7.4) containing 10 mM MgCl2 was added thereto. The final DMSO concentration in the reaction liquid was 2%. After mixing, the mixture was incubated for 10 minutes at 30° C. At the completion of the incubation, the tubes were placed in a bath containing boiling water for 3 minutes, and the reaction was stopped. After cooling the tubes in ice, 25 μl solution of 0.2 mg/ml snake venom was added thereto, and after mixing the mixture was incubated for 10 minutes at 30° C. […] 3H radioactivity (cpm) was measured using a TopCount.

Some results are limits rather than exact numbers.

In general, IC50 refers to the midpoint of a concentration-inhibition curve. Read a low IC50 as greater potency.

Sequence of cAMP-specific 3',5'-cyclic phosphodiesterase 4D (Q08499 whole entry): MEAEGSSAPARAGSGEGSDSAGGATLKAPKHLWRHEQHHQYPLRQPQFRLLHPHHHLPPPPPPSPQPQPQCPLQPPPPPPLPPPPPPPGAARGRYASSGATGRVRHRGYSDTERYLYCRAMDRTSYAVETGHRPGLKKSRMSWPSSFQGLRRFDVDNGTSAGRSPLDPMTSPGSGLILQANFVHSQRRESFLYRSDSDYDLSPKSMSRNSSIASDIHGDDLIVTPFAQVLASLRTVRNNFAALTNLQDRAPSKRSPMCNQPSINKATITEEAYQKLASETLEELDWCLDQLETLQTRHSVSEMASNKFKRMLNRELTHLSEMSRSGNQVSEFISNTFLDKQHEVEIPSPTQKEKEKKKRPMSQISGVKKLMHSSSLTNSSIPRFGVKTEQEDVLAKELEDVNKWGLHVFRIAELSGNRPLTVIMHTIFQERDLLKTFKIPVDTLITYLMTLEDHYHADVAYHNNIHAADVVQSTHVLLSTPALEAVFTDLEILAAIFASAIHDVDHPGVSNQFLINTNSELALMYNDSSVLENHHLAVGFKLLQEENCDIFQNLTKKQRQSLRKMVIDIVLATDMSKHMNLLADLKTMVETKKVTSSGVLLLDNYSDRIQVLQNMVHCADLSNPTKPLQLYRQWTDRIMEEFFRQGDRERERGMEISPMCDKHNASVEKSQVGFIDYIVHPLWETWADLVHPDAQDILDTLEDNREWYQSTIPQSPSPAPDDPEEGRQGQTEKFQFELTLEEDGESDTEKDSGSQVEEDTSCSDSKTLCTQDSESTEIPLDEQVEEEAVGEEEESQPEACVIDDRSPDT

The compound `COc1ccc(-c2nc(CCC(=O)c3ncccc3OC)co2)cc1OCC1CC1` [USRE46792, 126] registered a half-inhibitory concentration (IC50) of under 50 nM.
